From ChEMBL document CHEMBL1201862, “PubChem BioAssay data set” (2004)
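48-hour exposure; five concentrations; linearly interpolated endpoints. GI50: concentration for 50% inhibition of growth.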 Active and inactive are the calls of the source. Cut-off read from the data, not from the text of the source: active = GI50 up to about 1.1 µM and inactive = higher.

Columns and labels:
Assay in all cases: inhibition of tumour cell growth, NCI panel, 48 h
[1] = system: KM-20L2
[2] = system: OVCAR-8
[3] = system: HT-29
[4] = system: SK-MEL-28
[5] = system: HOP-92
[6] = system: LXFL 529
[7] = system: U-251
[8] = system: NCI-H460
[9] = system: ACHN
[10] = system: NCI-H23
[11] = system: MOLT-4
[12] = system: SN12C
[13] = system: 786-0
[14] = system: M14
[15] = system: DMS-273
[16] = system: BT-549
[17] = system: NCI/ADR-RES
[18] = system: MCF7
[19] = system: DU-145

COCC1N=C(c2ccc(OC)c(OCc3ccccc3)c2OC)O[C@H]1c1ccccc1 (some centres not stated)
GI50 [1]: 17.9 µM (inactive)
GI50 [2]: 23.1 µM (inactive)
GI50 [3]: 19.8 µM (inactive)
GI50 [4]: 20.7 µM (inactive)
GI50 [5]: 13.1 µM (inactive)
GI50 [6]: 14.8 µM (inactive)
GI50 [7]: 18.1 µM (inactive)
GI50 [8]: 11.1 µM (inactive)
GI50 [9]: 12.9 µM (inactive)
GI50 [10]: 17.7 µM (inactive)
GI50 [11]: 5.81 µM (inactive)
GI50 [12]: 20.5 µM (inactive)
GI50 [13]: 29.9 µM (inactive)
GI50 [14]: 14.6 µM (inactive)
GI50 [15]: 15.8 µM (inactive)

Clc1ccc(C2ON=C(c3ccccc3)N2C23CC4CC(CC(C4)C2)C3)cc1 (configuration not stated)
GI50 [16]: > 10 µM (inactive)
GI50 [2]: > 10 µM (inactive)
GI50 [3]: > 10 µM (inactive)
GI50 [4]: > 10 µM (inactive)
GI50 [5]: > 10 µM (inactive)
GI50 [17]: > 10 µM (inactive)
GI50 [18]: > 10 µM (inactive)
GI50 [7]: > 10 µM (inactive)
GI50 [8]: > 10 µM (inactive)
GI50 [9]: > 10 µM (inactive)
GI50 [10]: > 10 µM (inactive)
GI50 [19]: > 10 µM (inactive)
GI50 [11]: 9.66 µM (inactive)
GI50 [12]: > 10 µM (inactive)
GI50 [13]: > 10 µM (inactive)
GI50 [14]: > 10 µM (inactive)

COc1ccccc1N1CCN(CCCN2C(C(=O)c3ccccc3)=C(O)c3c(C)cc(C)nc3S2(=O)=O)CC1
GI50 [16]: > 100 µM (inactive)
GI50 [2]: 64.1 µM (inactive)
GI50 [3]: 34.8 µM (inactive)
GI50 [4]: > 100 µM (inactive)
GI50 [5]: 22.6 µM (inactive)
GI50 [17]: 50.4 µM (inactive)
GI50 [18]: 96.4 µM (inactive)
GI50 [7]: 58.6 µM (inactive)
GI50 [8]: 52.8 µM (inactive)
GI50 [9]: 89.1 µM (inactive)
GI50 [10]: > 100 µM (inactive)
GI50 [19]: > 100 µM (inactive)
GI50 [11]: 24.8 µM (inactive)
GI50 [12]: 63 µM (inactive)
GI50 [13]: 39.5 µM (inactive)
GI50 [14]: 90.4 µM (inactive)

CC1=NC(C)(C)[N+]([O-])=C1
GI50 [16]: > 10 µM (inactive)
GI50 [2]: > 10 µM (inactive)
GI50 [3]: > 10 µM (inactive)
GI50 [4]: > 10 µM (inactive)
GI50 [5]: > 10 µM (inactive)
GI50 [17]: > 10 µM (inactive)
GI50 [18]: > 10 µM (inactive)
GI50 [7]: > 10 µM (inactive)
GI50 [8]: > 10 µM (inactive)
GI50 [9]: > 10 µM (inactive)
GI50 [10]: > 10 µM (inactive)
GI50 [19]: > 10 µM (inactive)
GI50 [11]: > 10 µM (inactive)
GI50 [12]: > 10 µM (inactive)
GI50 [13]: > 10 µM (inactive)
GI50 [14]: > 10 µM (inactive)

CN(C)/C(=N\C#N)N(Cc1ccccc1)Cc1ccccc1
GI50 [1]: > 100 µM (inactive)
GI50 [2]: 87.3 µM (inactive)
GI50 [3]: 50.9 µM (inactive)
GI50 [4]: > 100 µM (inactive)
GI50 [5]: 36.3 µM (inactive)
GI50 [6]: 56.5 µM (inactive)
GI50 [7]: > 100 µM (inactive)
GI50 [8]: 17.7 µM (inactive)
GI50 [9]: > 100 µM (inactive)
GI50 [10]: > 100 µM (inactive)
GI50 [12]: > 100 µM (inactive)
GI50 [13]: > 100 µM (inactive)
GI50 [14]: > 100 µM (inactive)
GI50 [15]: > 100 µM (inactive)

C=C(C)C(=O)OC1C(C(C)CCCO)=C(CO)CC2OC(=O)C(=C)C21 (configuration not stated)
GI50 [16]: 14 µM (inactive)
GI50 [2]: 18.8 µM (inactive)
GI50 [3]: 18.3 µM (inactive)
GI50 [4]: 20 µM (inactive)
GI50 [5]: 16.7 µM (inactive)
GI50 [17]: 33.5 µM (inactive)
GI50 [18]: 11 µM (inactive)
GI50 [7]: 20.2 µM (inactive)
GI50 [8]: 16.4 µM (inactive)
GI50 [9]: 24.1 µM (inactive)
GI50 [10]: 19.3 µM (inactive)
GI50 [19]: 14.6 µM (inactive)
GI50 [11]: 18.4 µM (inactive)
GI50 [12]: 16.1 µM (inactive)
GI50 [13]: 4.13 µM (inactive)
GI50 [14]: 16.3 µM (inactive)

CCOC(=O)c1cc(NC(=O)c2ccccc2)c(=O)n2c(cc3c(Cl)cccc32)c1O
GI50 [16]: > 100 µM (inactive)
GI50 [2]: > 100 µM (inactive)
GI50 [3]: > 100 µM (inactive)
GI50 [4]: > 100 µM (inactive)
GI50 [5]: > 100 µM (inactive)
GI50 [17]: > 100 µM (inactive)
GI50 [18]: > 100 µM (inactive)
GI50 [7]: > 100 µM (inactive)
GI50 [8]: > 100 µM (inactive)
GI50 [9]: > 100 µM (inactive)
GI50 [10]: > 100 µM (inactive)
GI50 [19]: > 100 µM (inactive)
GI50 [11]: > 100 µM (inactive)
GI50 [12]: > 100 µM (inactive)
GI50 [13]: > 100 µM (inactive)
GI50 [14]: > 100 µM (inactive)

CN(Cc1cnc2nc(N)nc(N)c2n1)c1ccc(C(=O)NC(CCC(=O)NCCC(P(=O)(O)O)P(=O)(O)O)C(=O)O)cc1 (configuration not stated)
GI50 [16]: > 100 µM (inactive)
GI50 [2]: 7.29 µM (inactive)
GI50 [3]: 6 µM (inactive)
GI50 [4]: > 100 µM (inactive)
GI50 [5]: > 100 µM (inactive)
GI50 [17]: 21.5 µM (inactive)
GI50 [18]: 5 µM (inactive)
GI50 [7]: 25.9 µM (inactive)
GI50 [8]: 4.35 µM (inactive)
GI50 [9]: 11.5 µM (inactive)
GI50 [10]: 24.5 µM (inactive)
GI50 [19]: 21.2 µM (inactive)
GI50 [11]: 6.5 µM (inactive)
GI50 [12]: 11 µM (inactive)
GI50 [13]: 6.11 µM (inactive)
GI50 [14]: 4.85 µM (inactive)

Cc1sc2nc(-c3cccc([N+](=O)[O-])c3)c(/C=N/N=C(N)N)n2c1C
GI50 [16]: 1.5 µM (inactive)
GI50 [2]: 1.84 µM (inactive)
GI50 [3]: 1.62 µM (inactive)
GI50 [4]: 1.67 µM (inactive)
GI50 [5]: 1.46 µM (inactive)
GI50 [17]: 8.13 µM (inactive)
GI50 [18]: 1.84 µM (inactive)
GI50 [7]: 1.7 µM (inactive)
GI50 [8]: 1.81 µM (inactive)
GI50 [9]: 1.71 µM (inactive)
GI50 [10]: 1.82 µM (inactive)
GI50 [19]: 1.86 µM (inactive)
GI50 [11]: 1.9 µM (inactive)
GI50 [12]: 1.92 µM (inactive)
GI50 [13]: 1.83 µM (inactive)
GI50 [14]: 1.6 µM (inactive)

COc1cc2c(cc1OC)CC1c3cc(OC)c(OC)cc3CCN1CC2 (configuration not stated)
GI50 [16]: > 100 µM (inactive)
GI50 [2]: 95.5 µM (inactive)
GI50 [3]: 27.5 µM (inactive)
GI50 [4]: > 100 µM (inactive)
GI50 [5]: 69.3 µM (inactive)
GI50 [17]: 63.2 µM (inactive)
GI50 [18]: > 100 µM (inactive)
GI50 [7]: 52.8 µM (inactive)
GI50 [8]: 17.5 µM (inactive)
GI50 [9]: 1.64 µM (inactive)
GI50 [10]: 0.101 µM (active)
GI50 [19]: > 100 µM (inactive)
GI50 [11]: > 100 µM (inactive)
GI50 [12]: > 100 µM (inactive)
GI50 [13]: > 100 µM (inactive)
GI50 [14]: > 100 µM (inactive)

CN(C)C(=O)/C=C/c1c[nH]c(=O)[nH]c1=O
GI50 [1]: > 500 µM (inactive)
GI50 [2]: > 500 µM (inactive)
GI50 [3]: > 500 µM (inactive)
GI50 [4]: > 500 µM (inactive)
GI50 [5]: > 500 µM (inactive)
GI50 [17]: > 500 µM (inactive)
GI50 [18]: > 500 µM (inactive)
GI50 [7]: > 500 µM (inactive)
GI50 [8]: > 500 µM (inactive)
GI50 [10]: > 500 µM (inactive)
GI50 [11]: > 500 µM (inactive)
GI50 [12]: > 500 µM (inactive)
GI50 [15]: > 500 µM (inactive)

Cc1ccc2nc(-c3ccc(C(C)(C)C)cc3)oc(=O)c2c1
GI50 [16]: 24.4 µM (inactive)
GI50 [2]: 16.9 µM (inactive)
GI50 [3]: 19.6 µM (inactive)
GI50 [4]: 27.4 µM (inactive)
GI50 [5]: 29 µM (inactive)
GI50 [17]: 17.7 µM (inactive)
GI50 [18]: 23.9 µM (inactive)
GI50 [7]: 16.2 µM (inactive)
GI50 [8]: 16.2 µM (inactive)
GI50 [9]: 12.3 µM (inactive)
GI50 [10]: 19.6 µM (inactive)
GI50 [19]: 26.7 µM (inactive)
GI50 [11]: 17 µM (inactive)
GI50 [12]: 38.8 µM (inactive)
GI50 [13]: 25.1 µM (inactive)
GI50 [14]: 23.8 µM (inactive)

CCC(C#N)NCc1cccc(CNC(C#N)CC)c1 (configuration not stated)
GI50 [16]: > 100 µM (inactive)
GI50 [2]: > 100 µM (inactive)
GI50 [3]: > 100 µM (inactive)
GI50 [4]: > 100 µM (inactive)
GI50 [5]: > 100 µM (inactive)
GI50 [17]: > 100 µM (inactive)
GI50 [18]: > 100 µM (inactive)
GI50 [7]: > 100 µM (inactive)
GI50 [8]: > 100 µM (inactive)
GI50 [9]: > 100 µM (inactive)
GI50 [10]: > 100 µM (inactive)
GI50 [19]: > 100 µM (inactive)
GI50 [11]: > 100 µM (inactive)
GI50 [12]: > 100 µM (inactive)
GI50 [13]: > 100 µM (inactive)
GI50 [14]: 17.6 µM (inactive)
